Source: patent US20240262804A1, “NITROGEN-CONTAINING HETEROCYCLIC KETONES, PREPARATION METHODS AND MEDICINAL USES THEREOF” (Hansoh Bio LLC, priority 2021, published 2024)

The compounds below were run against bovine cardiac myosin (Bos taurus (Bovine), UniProt Q9BE39) (assay: Myosin inhibitory potency: PK/LDH-coupled ATPase assay on bovine skinned cardiac myofibrils). Settings: pCa=6.25, 50 μM ATP, 25° C., read-out: myosin inhibition activity IC50.
Sequence of bovine cardiac myosin (Q9BE39 whole entry): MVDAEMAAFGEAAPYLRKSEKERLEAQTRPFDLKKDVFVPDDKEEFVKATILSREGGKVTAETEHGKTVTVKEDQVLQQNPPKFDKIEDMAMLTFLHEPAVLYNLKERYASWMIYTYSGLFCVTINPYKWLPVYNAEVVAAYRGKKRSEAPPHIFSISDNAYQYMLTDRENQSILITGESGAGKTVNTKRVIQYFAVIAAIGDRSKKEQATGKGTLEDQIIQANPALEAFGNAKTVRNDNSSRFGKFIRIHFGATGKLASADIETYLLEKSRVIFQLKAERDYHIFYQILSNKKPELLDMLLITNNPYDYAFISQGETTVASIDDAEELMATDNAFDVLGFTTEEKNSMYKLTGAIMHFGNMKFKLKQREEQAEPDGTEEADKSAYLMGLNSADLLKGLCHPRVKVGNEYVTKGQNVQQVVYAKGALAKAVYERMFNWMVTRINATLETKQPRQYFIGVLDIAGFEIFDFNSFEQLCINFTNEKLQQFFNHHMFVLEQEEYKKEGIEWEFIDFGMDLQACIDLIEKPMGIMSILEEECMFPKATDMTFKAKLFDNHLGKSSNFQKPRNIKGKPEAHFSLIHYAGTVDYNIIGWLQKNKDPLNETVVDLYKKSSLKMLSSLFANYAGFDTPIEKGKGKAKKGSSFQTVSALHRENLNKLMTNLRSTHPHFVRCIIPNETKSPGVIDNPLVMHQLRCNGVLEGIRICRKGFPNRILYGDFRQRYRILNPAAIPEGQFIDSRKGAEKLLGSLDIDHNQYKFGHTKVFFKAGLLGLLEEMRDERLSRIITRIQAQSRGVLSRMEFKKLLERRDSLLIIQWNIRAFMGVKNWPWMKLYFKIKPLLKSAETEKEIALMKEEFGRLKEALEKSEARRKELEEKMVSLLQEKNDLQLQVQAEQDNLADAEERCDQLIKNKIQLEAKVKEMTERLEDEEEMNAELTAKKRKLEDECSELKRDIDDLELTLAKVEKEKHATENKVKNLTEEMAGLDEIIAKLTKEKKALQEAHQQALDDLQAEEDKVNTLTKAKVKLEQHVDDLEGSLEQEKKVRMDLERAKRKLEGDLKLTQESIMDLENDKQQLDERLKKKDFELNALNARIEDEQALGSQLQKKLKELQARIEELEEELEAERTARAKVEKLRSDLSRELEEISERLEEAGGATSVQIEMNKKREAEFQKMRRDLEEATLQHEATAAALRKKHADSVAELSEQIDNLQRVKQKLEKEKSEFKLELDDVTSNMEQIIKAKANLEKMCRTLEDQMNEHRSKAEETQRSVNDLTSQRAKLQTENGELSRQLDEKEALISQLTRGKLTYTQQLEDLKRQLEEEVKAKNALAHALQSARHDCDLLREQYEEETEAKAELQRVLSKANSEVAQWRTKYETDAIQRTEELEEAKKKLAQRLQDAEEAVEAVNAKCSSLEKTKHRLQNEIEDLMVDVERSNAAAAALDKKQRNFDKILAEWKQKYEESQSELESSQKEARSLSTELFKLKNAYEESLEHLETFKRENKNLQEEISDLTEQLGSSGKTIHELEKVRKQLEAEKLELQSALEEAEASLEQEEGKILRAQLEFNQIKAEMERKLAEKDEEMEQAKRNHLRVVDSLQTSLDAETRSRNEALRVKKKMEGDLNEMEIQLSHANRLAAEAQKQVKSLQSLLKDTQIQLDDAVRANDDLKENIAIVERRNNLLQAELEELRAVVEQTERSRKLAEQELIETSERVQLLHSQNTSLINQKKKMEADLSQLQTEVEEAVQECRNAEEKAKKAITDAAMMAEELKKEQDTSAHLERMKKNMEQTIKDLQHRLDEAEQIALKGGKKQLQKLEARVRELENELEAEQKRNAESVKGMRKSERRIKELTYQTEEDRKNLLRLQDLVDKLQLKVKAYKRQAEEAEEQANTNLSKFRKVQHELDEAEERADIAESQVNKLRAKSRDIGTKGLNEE
Sequence of bovine cardiac myosin (P85100 whole entry partner): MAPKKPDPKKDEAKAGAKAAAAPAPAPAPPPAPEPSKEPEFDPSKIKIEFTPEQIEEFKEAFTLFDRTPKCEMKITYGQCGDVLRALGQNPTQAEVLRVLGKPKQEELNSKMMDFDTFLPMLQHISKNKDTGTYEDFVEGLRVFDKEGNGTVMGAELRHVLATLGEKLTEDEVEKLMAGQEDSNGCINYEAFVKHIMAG
Sequence of bovine cardiac myosin (Q3SZE5 whole entry partner): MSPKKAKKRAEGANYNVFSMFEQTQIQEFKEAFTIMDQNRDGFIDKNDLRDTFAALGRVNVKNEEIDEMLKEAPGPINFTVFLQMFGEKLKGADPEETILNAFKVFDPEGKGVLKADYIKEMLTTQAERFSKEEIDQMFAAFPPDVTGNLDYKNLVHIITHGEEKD
Format: biochemical
Summary of the method: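 Bovine left-ventricle skinned myofibrils (1 mg/mL) in PM12 buffer pH 6.8 at pCa 6.25, 50 μM ATP, PK/LDH-coupled NADH depletion read at 340 nm, 25 °C.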
Work on C[C@H](Nc1nc(=O)n(C2CCOCC2)c(=O)[nH]1)c1cccc(C2CCCCC2)c1 [Example 215] yielded an IC50 of 880 nM. For C[C@H](Nc1nc(=O)n([C@H]2CCOC[C@H]2F)c(=O)[nH]1)c1ccc(F)cc1F [Example 281], the IC50 was 2260 nM. For C[C@H](Nc1nc(=O)n(C2CCOCC2)c(=O)[nH]1)c1ccc(Cl)c(F)c1 [Example 166], the IC50 was 5370 nM. Work on C[C@H](Nc1nc(=O)n(C2CCC(F)(F)CC2)c(=O)[nH]1)C1CCCCC1 [Example 55] yielded an IC50 of 4630 nM. Work on Cc1ccc(F)c([C@H](C)Nc2nc(=O)n([C@@H](C)C(F)(F)F)c(=O)[nH]2)c1 [Example 311] yielded an IC50 of 2360 nM. Work on Cc1cccc([C@H](C)Nc2nc(=O)n([C@H]3CC[C@H](NC(=O)OC(C)(C)C)CC3)c(=O)[nH]2)c1 [Example 97] yielded an IC50 of 1290 nM. Compound CC(Nc1nc(=O)n(C2CCOCC2)c(=O)[nH]1)c1cccc(CO)c1 (centres unmarked) [Example 139] has an IC50 of 6650 nM. Compound Cc1nccn1-c1cccc(C(C)Nc2nc(=O)n(C3CCOCC3)c(=O)[nH]2)c1 (centres unmarked) [Example 219] has an IC50 of 3380 nM. With C[C@H](Nc1nc(=O)n(C2CCN(C)C(=O)C2)c(=O)[nH]1)C1CCCCC1 (some centres unmarked) [Example 23] the IC50 was 8050 nM. In the case of O=c1nc(NC(c2ccccc2)C(F)F)[nH]c(=O)n1C1CCOCC1 (centres unmarked) [Example 143], the IC50 is reported as 7640 nM. For CC(Nc1nc(=O)n(C2CCOCC2)c(=O)[nH]1)c1cccc(F)c1 (centres unmarked) [Example 122], the IC50 was 3480 nM. In the case of CC(C)n1c(=O)nc(NC(C2CCCCC2)C2CC2)[nH]c1=O (centres unmarked) [Example 69], the IC50 is reported as 8430 nM. Compound C[C@H](Nc1nc(=O)n(C2CCOCC2)c(=O)[nH]1)c1cccc(C#N)c1 [Example 327] has an IC50 of 1270 nM. Cc1n[nH]cc1-c1cccc([C@H](C)Nc2nc(=O)n(C3CCOCC3)c(=O)[nH]2)c1 [Example 230] was tested, and the IC50 was 5710 nM. Compound CC(C)[C@H](O)c1cccc([C@H](C)Nc2nc(=O)n(C3CCOCC3)c(=O)[nH]2)c1 [Example 345] has an IC50 of 790 nM. Compound CC(=O)N1CCN(c2cccc([C@H](C)Nc3nc(=O)n(C4CCOCC4)c(=O)[nH]3)c2)CC1 [Example 213] has an IC50 of 7790 nM. Cc1cccc([C@H](C)Nc2nc(=O)n(C3CCN(CC(F)(F)F)CC3)c(=O)[nH]2)c1 [Example 39] was tested, and the IC50 was 6700 nM. In the case of COC[C@H](Nc1nc(=O)n(C2CCOCC2)c(=O)[nH]1)c1cccc(C)c1 [Example 294], the IC50 is reported as 880 nM. C[C@H](Nc1nc(=O)n([C@@H](C)C(F)(F)F)c(=O)[nH]1)c1cccc(F)c1 [Example 179] gave an IC50 of 3620 nM. Work on C[C@@H](Nc1nc(=O)n(C2CCOCC2)c(=O)[nH]1)c1ccc2c(c1)OC(F)(F)O2 [Example 318] yielded an IC50 of 1050 nM. In the case of COC[C@H](Nc1nc(=O)n(C2CCOCC2)c(=O)[nH]1)c1ccccc1 [Example 304], the IC50 is reported as 1780 nM. Work on C[C@H](Nc1nc(=O)n(C2CCOCC2)c(=O)[nH]1)C1CCCCC1 [Example 2] yielded an IC50 of 2450 nM. C[C@H](Nc1nc(=O)n(C2CCOCC2)c(=O)[nH]1)c1cccc(-n2cncn2)c1 [Example 201] was tested, and the IC50 was 4850 nM. Work on C[C@H](Nc1nc(=O)n(C2CCOCC2)c(=O)[nH]1)c1ccc(S(C)(=O)=O)cc1 [Example 249] yielded an IC50 of 780 nM. For C[C@H](Nc1nc(=O)n(C2CCOCC2)c(=O)[nH]1)c1ccc(F)c(Br)c1 [Example 158], the IC50 was 520 nM. For Cc1cccc([C@H](C)Nc2nc(=O)n([C@H]3CCOC[C@H]3F)c(=O)[nH]2)c1 [Example 316], the IC50 was 1230 nM. With C[C@H](Nc1nc(=O)n(C2CCOCC2)c(=O)[nH]1)c1cccc(N2CC(C)(C)C2)c1 [Example 214] the IC50 was 3400 nM. For Cc1cc([C@H](C)Nc2nc(=O)n(C(C)C)c(=O)[nH]2)ccc1F [Example 305], the IC50 was 950 nM. With CC(Nc1nc(=O)n(C2CCOCC2)c(=O)[nH]1)c1cc(F)ccc1F (centres unmarked) [Example 319] the IC50 was 1280 nM. Work on C[C@H](Nc1nc(=O)n([C@H]2CC[C@@H](O)CC2)c(=O)[nH]1)C1CCCCC1 [Example 237] yielded an IC50 of 4780 nM. C[C@H](Nc1nc(=O)n([C@@H](C)C(F)(F)F)c(=O)[nH]1)C1CCCCC1 [Example 14] was tested, and the IC50 was 1170 nM. For C[C@H](Nc1nc(=O)n(C2CCOCC2)c(=O)[nH]1)c1cccc(N2CCOCC2)c1 [Example 206], the IC50 was 3800 nM. For COc1cccc([C@H](C)Nc2nc(=O)n(C3CCOCC3)c(=O)[nH]2)c1 [Example 326], the IC50 was 1350 nM. CC(=O)N1CCC(c2cccc([C@H](C)Nc3nc(=O)n(C(C)C)c(=O)[nH]3)c2)CC1 [Example 289] was tested, and the IC50 was 1800 nM. Work on C[C@H](Nc1nc(=O)n(C2CCOCC2)c(=O)[nH]1)c1ccc(C(C)(C)C)cc1 [Example 160] yielded an IC50 of 1600 nM. Compound CC(Nc1nc(=O)n(C2CCOCC2)c(=O)[nH]1)C1CCC(F)(F)CC1 (centres unmarked) [Example 118] has an IC50 of 13000 nM. C[C@H](Nc1nc(=O)n(C2CCOCC2)c(=O)[nH]1)c1cccc(C2CCNCC2)c1 [Example 209] gave an IC50 of 1950 nM. Compound C[C@H](Nc1nc(=O)n(C2CCNC(=O)C2)c(=O)[nH]1)C1CCCCC1 (some centres unmarked) [Example 22] has an IC50 of 13200 nM. Work on CC[C@H](Nc1nc(=O)n(C(C)C)c(=O)[nH]1)C1CCCCC1 [Example 70] yielded an IC50 of 5280 nM. C[C@H](Nc1nc(=O)n(C2(C(F)(F)F)CC2)c(=O)[nH]1)C1CCCCC1 [Example 54] gave an IC50 of 4520 nM. Work on C[C@H](Nc1nc(=O)n(C2(C)CCC2)c(=O)[nH]1)C1CCCCC1 [Example 89] yielded an IC50 of 8640 nM. In the case of C[C@H](Nc1nc(=O)n(C2CCOCC2)c(=O)[nH]1)c1c(F)cccc1F [Example 12], the IC50 is reported as 2140 nM. Work on COc1ccc([C@H](C)Nc2nc(=O)n(C3CCOCC3)c(=O)[nH]2)cc1 [Example 48] yielded an IC50 of 1130 nM. Compound CC(n1c(=O)nc(N[C@@H](C)C2CCCCC2)[nH]c1=O)C(F)(F)F (some centres unmarked) [Example 52] has an IC50 of 6140 nM. For C[C@H](Nc1nc(=O)n(C2CCOCC2)c(=O)[nH]1)c1cccc(Cl)c1 [Example 154], the IC50 was 370 nM. With CC(Nc1nc(=O)n(C2CCOCC2)c(=O)[nH]1)c1ccccc1Br (centres unmarked) [Example 119] the IC50 was 3400 nM. Work on C[C@H](Nc1nc(=O)n([C@H]2CC[C@H](O)CC2)c(=O)[nH]1)C1CCCCC1 [Example 238] yielded an IC50 of 4280 nM. Work on C[C@H](Nc1nc(=O)n(C2CCN(CCF)CC2)c(=O)[nH]1)C1CCCCC1 [Example 300] yielded an IC50 of 2290 nM. O=c1nc(N[C@H](c2cccc(C3CN(CC(F)(F)F)C3)c2)C(F)F)[nH]c(=O)n1C1CCOCC1 [Example 259] gave an IC50 of 450 nM. Cc1ccccc1-c1cccc([C@H](C)Nc2nc(=O)n(C3CCOCC3)c(=O)[nH]2)c1 [Example 225] was tested, and the IC50 was 820 nM. Cc1cccc([C@H](C)Nc2nc(=O)n(C3CCOCC3(C)C)c(=O)[nH]2)c1 (some centres unmarked) [Example 99] was tested, and the IC50 was 9350 nM. C[C@H](Nc1nc(=O)n(C2CCOCC2)c(=O)[nH]1)c1cccc(F)c1 [Example 124] showed an IC50 of 1740 nM. C[C@H](O)c1cccc([C@H](C)Nc2nc(=O)n(C3CCOCC3)c(=O)[nH]2)c1 [Example 344] showed an IC50 of 550 nM. Work on O=c1nc(N[C@H](c2ccc(F)cc2F)C(F)F)[nH]c(=O)n1C1CCOCC1 [Example 263] yielded an IC50 of 2310 nM. Compound Cc1cccc([C@@H](Nc2nc(=O)n(C3CCOCC3)c(=O)[nH]2)C2CC2)c1 [Example 335] has an IC50 of 620 nM. CC(C)n1c(=O)nc(N[C@@H](C)c2cccc([C@@H](C)O)c2)[nH]c1=O [Example 271] showed an IC50 of 870 nM. In the case of C[C@H](Nc1nc(=O)n(C2CCNCC2)c(=O)[nH]1)C1CCCCC1 [Example 235], the IC50 is reported as 1660 nM. Cc1cc([C@@H](C)Nc2nc(=O)n(C3CCOCC3)c(=O)[nH]2)c(F)cc1F [Example 272] was tested, and the IC50 was 370 nM. C[C@H](Nc1nc(=O)n(C2CCOCC2)c(=O)[nH]1)c1cccc(N2CCN(C)CC2)c1 [Example 212] showed an IC50 of 17700 nM. Cc1cccc(C(C)Nc2nc(=O)n(C3CCN(C(=O)OC(C)(C)C)CC3)c(=O)[nH]2)c1 (centres unmarked) [Example 146] was tested, and the IC50 was 5510 nM. Compound COCC(Nc1nc(=O)n(C(C)C)c(=O)[nH]1)c1cc(C)ccc1F (centres unmarked) [Example 275] has an IC50 of 1810 nM. CC(Nc1nc(=O)n(C2CCOCC2)c(=O)[nH]1)c1ccc(O)cc1 (centres unmarked) [Example 103] gave an IC50 of 14100 nM. C[C@H](Nc1nc(=O)n(C2CCOCC2)c(=O)[nH]1)c1ccccc1Cl [Example 159] gave an IC50 of 470 nM. C[C@H](Nc1nc(=O)n(C2CCOCC2)c(=O)[nH]1)c1cc(Cl)cc(Cl)c1 [Example 151] gave an IC50 of 1770 nM. Work on Cc1cccc([C@H](C)Nc2nc(=O)n(C3CCN(C(C)C)CC3)c(=O)[nH]2)c1 [Example 37] yielded an IC50 of 1290 nM. For O=c1nc(NC(CF)c2ccccc2)[nH]c(=O)n1C1CCCCC1 (centres unmarked) [Example 142], the IC50 was 4830 nM. C[C@H](Nc1nc(=O)n(C2CCN(C)CC2)c(=O)[nH]1)C1CCCCC1 [Example 59] showed an IC50 of 2590 nM. Cc1cccc([C@H](C)Nc2nc(=O)n([C@H](C)C(F)(F)F)c(=O)[nH]2)c1 [Example 41] showed an IC50 of 2190 nM. C[C@H](Nc1nc(=O)n(C2CCOCC2)c(=O)[nH]1)c1cccc(C(O)C2CC2)c1 (some centres unmarked) [Example 250] gave an IC50 of 4030 nM. C[C@H](Nc1nc(=O)n(C2CCOCC2)c(=O)[nH]1)c1cccc(CC(F)(F)F)c1 [Example 274] showed an IC50 of 390 nM. In the case of CC(Nc1nc(=O)n(C2CCNCC2)c(=O)[nH]1)c1ccc(C(F)(F)F)cc1 (centres unmarked) [Example 193], the IC50 is reported as 5150 nM. With C[C@@H](Nc1nc(=O)n(C2CCOCC2)c(=O)[nH]1)c1ccc(C2CC2)cc1 [Example 334] the IC50 was 700 nM. C[C@H](Nc1nc(=O)n(C2CCOCC2)c(=O)[nH]1)c1cccc(-c2ccncc2)c1 [Example 221] was tested, and the IC50 was 2530 nM. Compound C[C@H](Nc1nc(=O)n(C2CCOCC2)c(=O)[nH]1)c1cccc(-c2ccccc2)c1 [Example 220] has an IC50 of 1320 nM. In the case of C[C@H](Nc1nc(=O)n([C@@H](C)C(F)(F)F)c(=O)[nH]1)c1cccc(C(F)(F)F)c1 [Example 332], the IC50 is reported as 1390 nM. Compound CC(Nc1nc(=O)n(C2CCOCC2)c(=O)[nH]1)c1cc(F)ccc1F (centres unmarked) [Example 127] has an IC50 of 1830 nM. Compound CC(Nc1nc(=O)n(C2CCOCC2)c(=O)[nH]1)C1CCCCCC1 (centres unmarked) [Example 109] has an IC50 of 4580 nM. In the case of CC(C)n1c(=O)nc(N[C@@H](C)c2cccc([C@H](C)O)c2)[nH]c1=O [Example 343], the IC50 is reported as 1510 nM. C[C@H](Nc1nc(=O)n(C2(C)CCCC2)c(=O)[nH]1)C1CCCCC1 [Example 90] gave an IC50 of 8720 nM. CO[C@H]1CC[C@@H](n2c(=O)nc(N[C@@H](C)C3CCCCC3)[nH]c2=O)CC1 [Example 84] was tested, and the IC50 was 5770 nM.
